Experimental data taken from article PMC12557367, ““Precision on Two Wheels”–Structural Refinement of ^64Cu- and ^68Ga-Labeled Bicyclic Peptides Targeting Nectin‑4 for Improved Tumor Imaging: From Preclinical Development to First-in-Human Application” (Journal of Medicinal Chemistry, 2025).
pKd: −log10 of the molar value. Numbered stars: 1 amine (or outer) side, 2 acyl side, 3 side chain; on linkers, the order of the positions; unused ones are H or OH. Bridge positions count the residues as written; N and C are the ends. Square brackets hold non-standard residues; d marks the D form. Peptide text beside a SMILES is read from it. * marks the point of attachment. DOTA = O=C(O)CN1CCN(CC(=O)O)CCN(CC(=O)*)CCN(CC(=O)O)CC1; TATA = O=C(CC[*:1])N1CN(C(=O)CC[*:2])CN(C(=O)CC[*:3])C1; X1 = O=C(O)CN1CCN(CC(=O)O)CCN([C@H](CCC(=O)*)C(=O)O)CC1; 1Nal = N[C@@H](Cc1cccc2ccccc12)C(=O)O; 2Nal = N[C@@H](Cc1ccc2ccccc2c1)C(=O)O; Hyp = O=C(O)[C@@H]1C[C@@H](O)CN1; hArg = N=C(N)NCCCC[C@H](N)C(=O)O; hSer = N[C@@H](CCO)C(=O)O; Nle = CCCC[C@H](N)C(=O)O

Columns and labels:
[1] = biological target: T1, recombinant human nectin-4 (Homo sapiens, UniProt Q96NY8); assay: FA-based competitive binding assay with probe 1a; details: for Hill coefficient n: competitive binding curve, variable slope
T1 construct: close to the value determined for the complete extracellular domain of nectin-4 (0.94 nM); purchased R&D Systems 2659-N4
T1 sequence (Q96NY8 32-349 limits assumed): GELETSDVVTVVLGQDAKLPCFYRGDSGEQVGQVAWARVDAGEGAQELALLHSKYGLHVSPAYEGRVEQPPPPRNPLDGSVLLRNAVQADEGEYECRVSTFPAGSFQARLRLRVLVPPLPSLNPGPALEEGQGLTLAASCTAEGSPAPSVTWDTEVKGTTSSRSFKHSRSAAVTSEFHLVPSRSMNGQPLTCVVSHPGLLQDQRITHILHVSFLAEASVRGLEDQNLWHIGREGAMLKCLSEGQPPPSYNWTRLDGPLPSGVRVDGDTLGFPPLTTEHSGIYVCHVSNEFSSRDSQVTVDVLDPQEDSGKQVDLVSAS

[2] = format: in vitro ADME; details: 24 h
Experimental: Human plasma was collected as previously described. For assessing the stability in human plasma, 10 μL (10 MBq) of the labeling solution of [ ^ 64 Cu]-Cu-1e, [ ^ 64 Cu]-Cu-3a, or [ ^ 64 Cu]-Cu-4 were added to 90 μL of human plasma, and the mixture was incubated at 37 °C for up to 24 h. At distinct time points (1, 2, 4, and 24 h), an aliquot of 20 μL was withdrawn and diluted with 60 μL of a mixture named “Supersol” (composition as described above). This was followed by centrifugation at 16,100g for 2 min. The supernatant was analyzed by radio-HPLC (the same system as used for analyzing the ^64Cu-labelings).

[3] = Chromatographic hydrophobicity index at immobilized artificial membrane (CHI IAM7.4) by HPLC; format: physicochemical; details: nonlabeled peptide, pH 7.4
Experimental: Consequently, the CHI IAM7.4 values indicate that unfavorable pharmacokinetic behavior due to nonspecific binding is not to be expected.
All commercial reagents and solvents were used without further purification, unless otherwise specified. […] The purity of compound 5, which bears selenomethionine, was lower due to the lability to oxidation (as discussed above). The HPLC-based determination of chromatographic hydrophobicity indices at an immobilized artificial membrane was performed as previously described according to the method developed by Valko et al.

HT-1376 cells = assay: Saturation binding assay on intact cells; format: cell-based, human; details: intact HT-1376 cells, ±SD; for pKd: 60 min, PBS wash, apparent
Experimental: For the saturation binding assay, total and nonspecific binding were determined as described above using 10 different radioligand concentrations ([…]) prepared by serial 1:1 dilution. Plots of “total binding” = f(radioligand) were analyzed by nonlinear regressions using the model of “one site-total, accounting for ligand depletion” as implemented in GraphPad Prism, and Plots of “nonspecific binding” = f(radioligand) were analyzed by linear regressions.

nectin-4 = biological target: nectin-4; design: method as in Duan et al.; details: SPR, buffer pH 4.0; ref Duan et al.; read-out: binding affinity; cited from earlier work
[4] = biological target: T1, recombinant human nectin-4; assay: Fluorescence anisotropy (FA) direct binding of fluorescent probes; details: 1 nM probe
Description: For characterizing the binding affinity of the bicyclic peptides toward nectin-4, we envisaged a fluorescence anisotropy-based competitive binding assay. Mudd et al. also used such an assay for the development of the bicycle drug conjugate BT8009. Herein, the peptidic scaffold of BT8009 was used as a basis for the required fluorescent nectin-4-ligand (probe) with either 6-TAMRA (1a) or 6-FAM (1b) being attached at the N-terminal Cys residue. […] In this context, the binding of the probe to nectin-4 was started by the addition of nectin-4, followed by continuous fluorescence measurements over 20 min. It is worth noting that a slight initial increase in the FA values could be observed for both probes (FA values at <300 s in Figure S1); however, this putative time-dependent association appeared to be too fast to analyze it. […]
All measurements were conducted at 37 °C over 1200 s (interval of 37 s) using a Cytation 5 multimode microplate reader (BioTek Instruments, Software Gen 5) and black 96-well microplates (BRANDplates with F-bottom wells). […] The FA (r) was calculated by Gen 5 software from the measured parallel and perpendicular fluorescence intensities (I ∥ and I ⊥, respectively) according to eq using a G factor of 0.87 (preset value). r=I∥−G×I⊥/I∥+2G×I⊥ 1 […]

[5] = biological target: T2, recombinant N-terminal Ig-like V domain of nectin-4 (Homo sapiens, UniProt Q96NY8); assay: FA direct binding of probe 1a to Ig-like V domain
T2 construct: probe 1a to the N-terminal Ig-like V domain of nectin-4 (Acro Biosystems, NE4-H82Ea); purchased Acro Biosystems NE4-H82Ea
T2 sequence (Q96NY8 32-144 limits assumed): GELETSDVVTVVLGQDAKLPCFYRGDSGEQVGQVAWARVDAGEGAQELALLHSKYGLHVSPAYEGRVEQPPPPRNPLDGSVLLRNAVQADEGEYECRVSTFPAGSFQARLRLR
Description: For direct binding of probe 1a to the N-terminal Ig-like V domain of nectin-4 (Acro Biosystems, NE4-H82Ea), the same procedure as described previously was applied.

Row | SMILES | Hill coefficient n [1] | chemical and proteolytic stability in human plasma [2] | CHI IAM7.4 [3] | pKd (HT-1376 cells; ^64Cu-labeled ligand) | B max (fmol/mg) (HT-1376 cells; ^64Cu-labeled ligand) | pKd (HT-1376 cells; ^68Ga-labeled ligand) | B max (fmol/mg) (HT-1376 cells; ^68Ga-labeled ligand) | factor less potent than DOTA conjugate 1f ([1]; FA K d ratio) | pKd (nectin-4) | dynamic range (ΔFA = mA of bound probe – mA of free probe) [4] | pKd [5]
1 | CSCC[C@@H]1NC(=O)[C@@H]2CSCCC(=O)N3CN(CN(C3)C(=O)CCSC[C@H](NC(=O)CC[C@H](C(=O)O)N3CCN(CC(=O)O)CCN(CC(=O)O)CC3)C(=O)N3CCC[C@H]3C(=O)N[C@@H](Cc3cccc4ccccc34)C(=O)N[C@H](CC(=O)O)C(=O)N2)C(=O)CCSC[C@@H](C(N)=O)NC(=O)[C@H](Cc2c[nH]c3ccccc23)NC(=O)[C@@H]2C[C@@H](O)CN2C(=O)[C@@H]2CCCN2C(=O)[C@H]([C@@H](C)O)NC(=O)[C@H](CO)NC(=O)[C@H](Cc2c[nH]c3ccccc23)NC(=O)[C@H](CC(=O)O)NC(=O)[C@H](CCCCNC(=N)N)NC1=O [1e] | 1.52 | No signs of degradation | 19.9 | 8.15 | 780 (±23.9) fmol/mg | 8.06 | 1345 (±52.5) fmol/mg |  |  |  | 
2 | CSCC[C@@H]1NC(=O)[C@@H]2CSCCC(=O)N3CN(CN(C3)C(=O)CCSC[C@H](NC(=O)CN3CCN(CC(=O)O)CCN(CC(=O)O)CCN(CC(=O)O)CC3)C(=O)N3CCC[C@H]3C(=O)N[C@@H](Cc3ccc4ccccc4c3)C(=O)N[C@H](CC(=O)O)C(=O)N2)C(=O)CCSC[C@@H](C(=O)O)NC(=O)[C@H](Cc2c[nH]c3ccccc23)NC(=O)[C@@H]2C[C@@H](O)CN2C(=O)[C@@H]2CCCN2C(=O)[C@H]([C@@H](C)O)NC(=O)[C@H](CO)NC(=O)[C@H](Cc2c[nH]c3ccccc23)NC(=O)[C@H](CC(=O)O)NC(=O)[C@H](CCCNC(=N)N)NC1=O [8d, reference compound] ({DOTA}-CP[2Nal][dD]CMRDWSTP[Hyp]WC-OH; linker 1-5-15 via TATA) | 2.53 |  |  |  |  | 6.65 | 291 (±77.9) fmol/mg | 26 fold | 7.63 |  | 
3 | COCC[C@@H]1NC(=O)[C@@H]2CSCCC(=O)N3CN(CN(C3)C(=O)CCSC[C@H](NC(=O)CC[C@H](C(=O)O)N3CCN(CC(=O)O)CCN(CC(=O)O)CC3)C(=O)N3CCC[C@H]3C(=O)N[C@@H](Cc3cccc4ccccc34)C(=O)N[C@H](CC(=O)O)C(=O)N2)C(=O)CCSC[C@@H](C(N)=O)NC(=O)[C@H](Cc2c[nH]c3ccccc23)NC(=O)[C@@H]2C[C@@H](O)CN2C(=O)[C@@H]2CCCN2C(=O)[C@H]([C@@H](C)O)NC(=O)[C@H](CO)NC(=O)[C@H](Cc2c[nH]c3ccccc23)NC(=O)[C@H](CC(=O)O)NC(=O)[C@H](CCCCNC(=N)N)NC1=O [compound 4] (X1-CP[1Nal][dD]C[hSer](Me)[hArg]DWSTP[Hyp]WC-NH2; linker 1-5-15 via TATA) | 1.72 | No signs of degradation | 20.2 | 8.22 |  | 7.88 |  |  |  |  | 
4 | CSCC[C@@H]1NC(=O)[C@@H]2CSCCC(=O)N3CN(CN(C3)C(=O)CCSC[C@H](NC(=O)c3ccc(C(=O)O)c(-c4c5ccc(=[N+](C)C)cc-5oc5cc(N(C)C)ccc45)c3)C(=O)N3CCC[C@H]3C(=O)N[C@@H](Cc3cccc4ccccc34)C(=O)N[C@H](CC(=O)O)C(=O)N2)C(=O)CCSC[C@@H](C(N)=O)NC(=O)[C@H](Cc2c[nH]c3ccccc23)NC(=O)[C@@H]2C[C@@H](O)CN2C(=O)[C@@H]2CCCN2C(=O)[C@H]([C@@H](C)O)NC(=O)[C@H](CO)NC(=O)[C@H](Cc2c[nH]c3ccccc23)NC(=O)[C@H](CC(=O)O)NC(=O)[C@H](CCCCNC(=N)N)NC1=O [1a] |  |  |  |  |  |  |  |  |  | 100 (±3) mA | 8.89
5 | CCCC[C@@H]1NC(=O)[C@@H]2CSCCC(=O)N3CN(CN(C3)C(=O)CCSC[C@H](NC(=O)CC[C@H](C(=O)O)N3CCN(CC(=O)O)CCN(CC(=O)O)CC3)C(=O)N3CCC[C@H]3C(=O)N[C@@H](Cc3cccc4ccccc34)C(=O)N[C@H](CC(=O)O)C(=O)N2)C(=O)CCSC[C@@H](C(N)=O)NC(=O)[C@H](Cc2c[nH]c3ccccc23)NC(=O)[C@@H]2C[C@@H](O)CN2C(=O)[C@@H]2CCCN2C(=O)[C@H]([C@@H](C)O)NC(=O)[C@H](CO)NC(=O)[C@H](Cc2c[nH]c3ccccc23)NC(=O)[C@H](CC(=O)O)NC(=O)[C@H](CCCCNC(=N)N)NC1=O [3a] (X1-CP[1Nal][dD]C[Nle][hArg]DWSTP[Hyp]WC-NH2; linker 1-5-15 via TATA) | 1.30 | No signs of degradation | 20.6 |  |  |  |  |  |  |  | 
